The values that follow come from US5510368A, “N-benzyl-3-indoleacetic acids as antiinflammatory drugs” (priority 1995, dated 1996).

Where a name gives a salt, the structure may show the parent alone.

In one assay the test system is Rat paw edema. Put plainly: Rat Paw Edema Assay (carrageenan). Type of assay: in vivo, Male Sprague-Dawley rats. The following applies: po, 1 h before subplantar carrageenan (500 μg per paw); paw volume at 3 h. The method, then: Male Sprague-Dawley rats (150-200 g) were fasted overnight and were given po either vehicle (1% methocel or 5% Tween 80) or a test compound. One hour later, a line was drawn using a permanent marker at the level above the ankle in one hind paw to define the area of the paw to be monitored. The paw volume (VO) was measured using a plethysmometer (Ugo-B asile, Italy) based on the principle of water displacement. The animals were then injected subplantarly with 50 μl of 1% carrageenan solution in saline (FMC Corp, Maine) into the paw using an insulin syringe with a 25-gauge needle (i.e. 500 μg carrageenan per paw). Three hours later, the paw is volume (V3) was measured and the increases in paw volume (V3 -VO) were calculated. The animals were sacrificed by CO2 aphyxiation and the absence or presence of stomach lesions scored. Data were compared with the vehicle-control values and percent inhibition calculated. […] All treatment groups were coded to eliminate observer bias.
For orientation: The carrageenan paw model is a standard test of acute inflammation.

Another assay has as its target T1, cyclooxygenase-2 (Homo sapiens, UniProt P35354).
T1 sequence (P35354 18-604): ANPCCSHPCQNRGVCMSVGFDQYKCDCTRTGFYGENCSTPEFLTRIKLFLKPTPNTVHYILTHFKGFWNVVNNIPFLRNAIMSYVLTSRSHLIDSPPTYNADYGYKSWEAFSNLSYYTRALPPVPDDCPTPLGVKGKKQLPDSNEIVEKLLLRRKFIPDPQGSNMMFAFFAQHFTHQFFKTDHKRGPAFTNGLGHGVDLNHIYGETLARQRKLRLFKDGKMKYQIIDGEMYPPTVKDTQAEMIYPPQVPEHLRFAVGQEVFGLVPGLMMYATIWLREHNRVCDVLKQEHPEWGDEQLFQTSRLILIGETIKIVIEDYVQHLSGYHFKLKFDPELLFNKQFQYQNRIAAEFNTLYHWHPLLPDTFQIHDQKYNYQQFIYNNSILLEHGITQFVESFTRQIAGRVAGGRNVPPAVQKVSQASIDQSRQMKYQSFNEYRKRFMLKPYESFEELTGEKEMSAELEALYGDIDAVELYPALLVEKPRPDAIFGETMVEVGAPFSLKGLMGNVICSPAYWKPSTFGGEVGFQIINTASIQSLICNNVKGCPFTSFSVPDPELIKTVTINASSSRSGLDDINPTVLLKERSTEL
As to the kind of experiment: cell-based. The following applies: human osteosarcoma 143 cells; PGE2 synthesis; 10 μM arachidonic acid; read-out: COX-2 (IC50). The method, then:
Compounds were tested as inhibitors of cyclooxygenase activity in whole cell cyclooxygenase assays. Both of these assays measured prostaglandin E2 synthesis in response to arachidonic acid, using a radioimmunoassay. Cells used for these assays were human osteosarcoma 143 cells (which specifically express cyclooxygenase-2) and human U-937 cells (which specifically express cyclooxygenase-1 ). In these assays, 100% activity is defined as the difference between prostaglandin E2 synthesis in the absence and presence of arachidonate.
For cyclooxygenase assays, osteosarcoma cells are cultured in 1 mL of media in 24-well multidishes (Nunclon) until confluent (1-2×10^5 cells/well). U-937 cells are grown in spinner flasks and resuspended to a final density of 1.5×10^6 cells/mL in 24-well multidishes (Nunclon). Following washing and resuspension of osteosarcoma and U-937 cells in 1 mL of Hanks balanced salts solution (HBSS), 2 μL of a DMSO solution of test compound or DMSO vehicle is added, and samples gently mixed. All assays are performed in triplicate. Samples and then incubated for 5 or 15 minutes at 37° C., prior to the addition of arachidonic acid. Arachidonic acid (peroxide-free, Cayman Chemical) is prepared as a 10mM stock solution in ethanol and further diluted 10-fold in HBSS. An aliquot of 10 μL of this diluted solution is added to the cells to give a final arachidonic acid concentration of 10 μM. Control samples are incubated with ethanol vehicle instead of arachidonic acid. Samples are again gently mixed and incubated for a further 10 min. at 37° C. For osteosarcoma cells, reactions are then stopped by the addition of 100 μL of 1 N HCl with mixing and by the rapid removal of the solution from cell monolayers. For U-937 cells, reactions are stopped by the addition of 100 μL of 1N HCl, with mixing. Samples are then neutralized by the addition of 100 μL of 1N NaOH and PGE2 levels measured by radioimmunoassay.
In the assay, inhibition is determined by measuring the amount of prostaglandin E2 (PGE2) synthesized in the presence of arachidonic acid, cyclooxygenase-1 or cyclooxygenase-2 and a putative inhibitor. The IC50 values represent the concentration of putative inhibitor required to return PGE2 synthesis to 50% of that obtained as compared to the uninhibited control.

The next assay concerns the target cyclooxygenase-1 (Homo sapiens, UniProt P23219). As to the kind of experiment: Inhibition of cyclooxygenase activity, whole cell cyclooxygenase assay (COX-1, U-937 cells, PGE2 by radioimmunoassay). It counts as cell-based. Particulars: human U-937 cells; PGE2 synthesis; 10 μM arachidonic acid.

cyclooxygenase-1, sequence (P23219 24-599): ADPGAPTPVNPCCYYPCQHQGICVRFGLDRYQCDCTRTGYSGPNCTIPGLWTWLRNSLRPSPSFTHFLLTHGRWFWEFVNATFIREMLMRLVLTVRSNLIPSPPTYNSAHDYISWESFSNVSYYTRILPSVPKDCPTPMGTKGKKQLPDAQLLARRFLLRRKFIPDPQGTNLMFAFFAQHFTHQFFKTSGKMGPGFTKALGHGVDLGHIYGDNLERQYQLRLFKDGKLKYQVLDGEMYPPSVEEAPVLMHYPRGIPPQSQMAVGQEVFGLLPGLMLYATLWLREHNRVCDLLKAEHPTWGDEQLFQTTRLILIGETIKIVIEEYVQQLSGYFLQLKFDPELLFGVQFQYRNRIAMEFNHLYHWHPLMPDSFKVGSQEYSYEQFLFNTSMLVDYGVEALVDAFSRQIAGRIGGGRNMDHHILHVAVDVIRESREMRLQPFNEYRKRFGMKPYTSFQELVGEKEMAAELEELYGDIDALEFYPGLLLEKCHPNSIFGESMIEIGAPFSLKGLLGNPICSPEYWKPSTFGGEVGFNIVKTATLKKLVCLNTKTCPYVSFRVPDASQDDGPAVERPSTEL

`Cc1c(C(C)C(=O)[O-])c2cc(Br)ccc2n1Cc1ccc(Br)cc1.[Na+]` (racemic) had a Rat paw edema (ED30) with Rat paw edema of 0.26 mg/kg.
Regarding `Cc1c(C(C)C(=O)[O-])c2cc(Br)ccc2n1Cc1ccc(Br)cc1.[Na+]` (racemic) [sodium salt], the IC50 (usually the concentration that gives 50% inhibition) on cyclooxygenase-2 amounted to 1.9 nM; on cyclooxygenase-1, 10000 nM.
With `Cc1c([C@H](C)C(=O)O)c2cc(Br)ccc2n1Cc1ccc(Br)cc1` [Example 2, sodium salt], the Rat paw edema (ED30) in the assay on Rat paw edema is 0.28 mg/kg. Further, the values for the IC50 at cyclooxygenase-2 and against cyclooxygenase-1 were 13 nM and 1100 nM, respectively.
The matching figures for `Cc1c([C@@H](C)C(=O)O)c2cc(Br)ccc2n1Cc1ccc(Br)cc1` [Example 3, (R)-(-)-2-(5-Bromo-1-(4-bromobenzyl)-2-methyl-1H-indol-3-yl)propionic acid, sodium salt]: 0.57 mg/kg, 1 nM and 32000 nM.
As for `COc1ccc2c(c1)c(C(C)C(=O)O)c(C)n2Cc1ccc(Cl)cc1` (stereo not drawn) [MK-555, α-(1-p-chlorobenzyl-2-methyl-5-methoxy-3-indolyl)propionic acid, reference compound], the Rat paw edema (ED30) in the assay on Rat paw edema is 3 mg/kg. The IC50 at cyclooxygenase-2 is 10 nM; against cyclooxygenase-1 it was 10000 nM.
